Test system: 922993-354-T-J3-PDC complex spheroids, viability, % test/control
Assay: Anticancer human tumor 922993-354-T-J3-PDC patient-derived endometrial carcinoma cell line growth inhibition [CLK]
Details: for IC50: curve of first compound; for viability, T/C: stronger effect = lower value
Procedure, shortened: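 Patient-derived tumor cells grown as complex spheroids with HUVEC endothelial cells and mesenchymal stem cells, treated with drug combinations. Concentrations descend in half-log steps from near clinical Cmax, or from 10 microM if Cmax unknown.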

[1] = second compound 0.0316 µM, first compound 0.00949 µM
[2] = second compound 0.0316 µM, first compound 0.03 µM
[3] = second compound 0.0316 µM, first compound 0.0949 µM
[4] = second compound 0.0316 µM, first compound 0.3 µM
[5] = second compound 0.1 µM, first compound 0.00949 µM
[6] = second compound 0.1 µM, first compound 0.03 µM
[7] = second compound 0.1 µM, first compound 0.0949 µM
[8] = second compound 0.1 µM, first compound 0.3 µM
[9] = second compound 0.316 µM, first compound 0.00949 µM
[10] = second compound 0.316 µM, first compound 0.03 µM
[11] = second compound 0.316 µM, first compound 0.0949 µM
[12] = second compound 0.316 µM, first compound 0.3 µM
[13] = second compound 1 µM, first compound 0.00949 µM
[14] = second compound 1 µM, first compound 0.03 µM
[15] = second compound 1 µM, first compound 0.0949 µM
[16] = second compound 1 µM, first compound 0.3 µM
[17] = second compound 3.16 µM, first compound 0.00949 µM
[18] = second compound 3.16 µM, first compound 0.03 µM
[19] = second compound 3.16 µM, first compound 0.0949 µM
[20] = second compound 3.16 µM, first compound 0.3 µM
[21] = second compound 10 µM, first compound 0.00949 µM
[22] = second compound 10 µM, first compound 0.03 µM
[23] = second compound 10 µM, first compound 0.0949 µM
[24] = second compound 10 µM, first compound 0.3 µM
[25] = second compound 0.0316 µM, first compound 0.0316 µM
[26] = second compound 0.0316 µM, first compound 0.1 µM
[27] = second compound 0.0316 µM, first compound 0.316 µM
[28] = second compound 0.0316 µM, first compound 1 µM
[29] = second compound 0.0316 µM, first compound 3.16 µM
[30] = second compound 0.0316 µM, first compound 10 µM
[31] = second compound 0.1 µM, first compound 0.0316 µM
[32] = second compound 0.1 µM, first compound 0.1 µM
[33] = second compound 0.1 µM, first compound 0.316 µM
[34] = second compound 0.1 µM, first compound 1 µM
[35] = second compound 0.1 µM, first compound 3.16 µM
[36] = second compound 0.1 µM, first compound 10 µM
[37] = second compound 0.316 µM, first compound 0.0316 µM
[38] = second compound 0.316 µM, first compound 0.1 µM
[39] = second compound 0.316 µM, first compound 0.316 µM
[40] = second compound 0.316 µM, first compound 1 µM
[41] = second compound 0.316 µM, first compound 3.16 µM
[42] = second compound 0.316 µM, first compound 10 µM
[43] = second compound 1 µM, first compound 0.0316 µM
[44] = second compound 1 µM, first compound 0.1 µM
[45] = second compound 1 µM, first compound 0.316 µM
[46] = second compound 1 µM, first compound 1 µM
[47] = second compound 1 µM, first compound 3.16 µM
[48] = second compound 1 µM, first compound 10 µM
[49] = second compound 3.16 µM, first compound 0.0316 µM
[50] = second compound 3.16 µM, first compound 0.1 µM
[51] = second compound 3.16 µM, first compound 0.316 µM
[52] = second compound 3.16 µM, first compound 1 µM
[53] = second compound 3.16 µM, first compound 3.16 µM
[54] = second compound 3.16 µM, first compound 10 µM
[55] = second compound 10 µM, first compound 0.0316 µM
[56] = second compound 10 µM, first compound 0.1 µM
[57] = second compound 10 µM, first compound 0.316 µM
[58] = second compound 10 µM, first compound 1 µM
[59] = second compound 10 µM, first compound 3.16 µM
[60] = second compound 10 µM, first compound 10 µM
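Also: spheroids exposed to the agents for 7 days before readout.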

SMILES: C=CC(=O)Nc1cc(Nc2nccc(-c3cn(C)c4ccccc34)n2)c(OC)cc1N(C)CCN(C)C + CNC(=O)c1ccc(Nc2nc(OC3CCCC3)c3c(-c4ccc5nc(C)oc5c4)c[nH]c3n2)c(OC)c1
- IC50 (second compound 0.0316 µM): > 300 nM
- IC50 (second compound 0.1 µM): > 300 nM
- IC50 (second compound 0.316 µM): > 300 nM
- IC50 (second compound 1 µM): < 0.949 nM
- IC50 (second compound 3.16 µM): < 0.949 nM
- IC50 (second compound 10 µM): < 0.949 nM
- viability, T/C (second compound 0.0316 µM, first compound 0.000949 µM): 106%
- viability, T/C (second compound 0.0316 µM, first compound 0.003 µM): 105%
- viability, T/C [1]: 106%
- viability, T/C [2]: 102%
- viability, T/C [3]: 96.9%
- viability, T/C [4]: 89.2%
- viability, T/C (second compound 0.1 µM, first compound 0.000949 µM): 97.5%
- viability, T/C (second compound 0.1 µM, first compound 0.003 µM): 107%
- viability, T/C [5]: 96.4%
- viability, T/C [6]: 98.3%
- viability, T/C [7]: 91.2%
- viability, T/C [8]: 86%
- viability, T/C (second compound 0.316 µM, first compound 0.000949 µM): 70.7%
- viability, T/C (second compound 0.316 µM, first compound 0.003 µM): 58.9%
- viability, T/C [9]: 55.5%
- viability, T/C [10]: 42%
- viability, T/C [11]: 57.1%
- viability, T/C [12]: 51.2%
- viability, T/C (second compound 1 µM, first compound 0.000949 µM): 37.5%
- viability, T/C (second compound 1 µM, first compound 0.003 µM): 34.9%
- viability, T/C [13]: 41.9%
- viability, T/C [14]: 42%
- viability, T/C [15]: 34.6%
- viability, T/C [16]: 35.5%
- viability, T/C (second compound 3.16 µM, first compound 0.000949 µM): 35.8%
- viability, T/C (second compound 3.16 µM, first compound 0.003 µM): 33%
- viability, T/C [17]: 34%
- viability, T/C [18]: 34.6%
- viability, T/C [19]: 34%
- viability, T/C [20]: 29.9%
- viability, T/C (second compound 10 µM, first compound 0.000949 µM): 26.8%
- viability, T/C (second compound 10 µM, first compound 0.003 µM): 29.7%
- viability, T/C [21]: 30%
- viability, T/C [22]: 30.2%
- viability, T/C [23]: 29%
- viability, T/C [24]: 32.5%

SMILES: CC1(C)CCC(CN2CCN(c3ccc(C(=O)NS(=O)(=O)c4ccc(NCC5CCOCC5)c([N+](=O)[O-])c4)c(Oc4cnc5[nH]ccc5c4)c3)CC2)=C(c2ccc(Cl)cc2)C1 + CNC(=O)c1ccc(Nc2nc(OC3CCCC3)c3c(-c4ccc5nc(C)oc5c4)c[nH]c3n2)c(OC)c1
- IC50 (second compound 0.0316 µM): > 10000 nM
- IC50 (second compound 0.1 µM): > 10000 nM
- IC50 (second compound 0.316 µM): 4840 nM
- IC50 (second compound 1 µM): < 31.6 nM
- IC50 (second compound 3.16 µM): < 31.6 nM
- IC50 (second compound 10 µM): < 31.6 nM
- viability, T/C [25]: 108%
- viability, T/C [26]: 96%
- viability, T/C [27]: 102%
- viability, T/C [28]: 88%
- viability, T/C [29]: 108%
- viability, T/C [30]: 66.1%
- viability, T/C [31]: 108%
- viability, T/C [32]: 105%
- viability, T/C [33]: 110%
- viability, T/C [34]: 104%
- viability, T/C [35]: 113%
- viability, T/C [36]: 61.5%
- viability, T/C [37]: 69.8%
- viability, T/C [38]: 62.8%
- viability, T/C [39]: 61.3%
- viability, T/C [40]: 58.7%
- viability, T/C [41]: 64.4%
- viability, T/C [42]: 27.1%
- viability, T/C [43]: 36.3%
- viability, T/C [44]: 37.7%
- viability, T/C [45]: 27.1%
- viability, T/C [46]: 38.2%
- viability, T/C [47]: 31.8%
- viability, T/C [48]: 17.9%
- viability, T/C [49]: 29.6%
- viability, T/C [50]: 33.6%
- viability, T/C [51]: 28.6%
- viability, T/C [52]: 31.3%
- viability, T/C [53]: 29%
- viability, T/C [54]: 15.4%
- viability, T/C [55]: 31.4%
- viability, T/C [56]: 25.7%
- viability, T/C [57]: 26%
- viability, T/C [58]: 25%
- viability, T/C [59]: 29.4%
- viability, T/C [60]: 13.6%

SMILES: NC(=O)C(=Cn1cnc(-c2cc(C(F)(F)F)cc(C(F)(F)F)c2)n1)c1cncnc1 + CNC(=O)c1ccc(Nc2nc(OC3CCCC3)c3c(-c4ccc5nc(C)oc5c4)c[nH]c3n2)c(OC)c1
- IC50 (second compound 0.0316 µM): 583 nM
- IC50 (second compound 0.1 µM): 467 nM
- IC50 (second compound 0.316 µM): 205 nM
- IC50 (second compound 1 µM): 48.6 nM
- IC50 (second compound 3.16 µM): 44.6 nM
- IC50 (second compound 10 µM): 36.4 nM
- viability, T/C [1]: 120%
- viability, T/C [2]: 123%
- viability, T/C [3]: 98.3%
- viability, T/C [4]: 57.7%
- viability, T/C (second compound 0.0316 µM, first compound 0.949 µM): 50.4%
- viability, T/C (second compound 0.0316 µM, first compound 3 µM): 34.6%
- viability, T/C [5]: 107%
- viability, T/C [6]: 120%
- viability, T/C [7]: 102%
- viability, T/C [8]: 54%
- viability, T/C (second compound 0.1 µM, first compound 0.949 µM): 49.4%
- viability, T/C (second compound 0.1 µM, first compound 3 µM): 36.7%
- viability, T/C [9]: 81.1%
- viability, T/C [10]: 99%
- viability, T/C [11]: 71%
- viability, T/C [12]: 37.3%
- viability, T/C (second compound 0.316 µM, first compound 0.949 µM): 41.7%
- viability, T/C (second compound 0.316 µM, first compound 3 µM): 40.2%
- viability, T/C [13]: 56.8%
- viability, T/C [14]: 63.2%
- viability, T/C [15]: 36.2%
- viability, T/C [16]: 18%
- viability, T/C (second compound 1 µM, first compound 0.949 µM): 29%
- viability, T/C (second compound 1 µM, first compound 3 µM): 22.2%
- viability, T/C [17]: 58.8%
- viability, T/C [18]: 67.8%
- viability, T/C [19]: 24.5%
- viability, T/C [20]: 12.4%
- viability, T/C (second compound 3.16 µM, first compound 0.949 µM): 18.9%
- viability, T/C (second compound 3.16 µM, first compound 3 µM): 6.38%
- viability, T/C [21]: 46.6%
- viability, T/C [22]: 65.3%
- viability, T/C [23]: 20.4%
- viability, T/C [24]: 8.4%
- viability, T/C (second compound 10 µM, first compound 0.949 µM): 11.9%
- viability, T/C (second compound 10 µM, first compound 3 µM): 3.1%

SMILES: Nc1ccccc1NC(=O)c1ccc(CNC(=O)OCc2cccnc2)cc1 + CNC(=O)c1ccc(Nc2nc(OC3CCCC3)c3c(-c4ccc5nc(C)oc5c4)c[nH]c3n2)c(OC)c1
- IC50 (second compound 0.0316 µM): > 10000 nM
- IC50 (second compound 0.1 µM): 6250 nM
- IC50 (second compound 0.316 µM): 2290 nM
- IC50 (second compound 1 µM): < 31.6 nM
- IC50 (second compound 3.16 µM): < 31.6 nM
- IC50 (second compound 10 µM): < 31.6 nM
- viability, T/C [25]: 106%
- viability, T/C [26]: 99.7%
- viability, T/C [27]: 93.3%
- viability, T/C [28]: 86.6%
- viability, T/C [29]: 65.1%
- viability, T/C [30]: 52.1%
- viability, T/C [31]: 106%
- viability, T/C [32]: 93.8%
- viability, T/C [33]: 97.7%
- viability, T/C [34]: 77.4%
- viability, T/C [35]: 58.4%
- viability, T/C [36]: 44.4%
- viability, T/C [37]: 59.1%
- viability, T/C [38]: 50%
- viability, T/C [39]: 57.9%
- viability, T/C [40]: 51.9%
- viability, T/C [41]: 49.3%
- viability, T/C [42]: 34.4%
- viability, T/C [43]: 37.6%
- viability, T/C [44]: 37%
- viability, T/C [45]: 31.9%
- viability, T/C [46]: 34.4%
- viability, T/C [47]: 31.9%
- viability, T/C [48]: 8.75%
- viability, T/C [49]: 29%
- viability, T/C [50]: 30.7%
- viability, T/C [51]: 27.9%
- viability, T/C [52]: 31.5%
- viability, T/C [53]: 24.8%
- viability, T/C [54]: 6.59%
- viability, T/C [55]: 28.8%
- viability, T/C [56]: 24.2%
- viability, T/C [57]: 24.8%
- viability, T/C [58]: 30.1%
- viability, T/C [59]: 17.2%
- viability, T/C [60]: 5.11%
